Reference: EP0419844B1, “N-hydroxy-dibenz[b,e]oxepin-alkylamines and -alkanoic acid amides, related heterocyclic analogues, a process for their preparation and their use in the manufacture of medicaments” (HOECHST-ROUSSEL PHARMACEUTICALS INCORPORATED, priority 1989, dated 1991)

Experiments:
[1] = system: naja naja (snake venom) phospholipase A₂(PLA₂)-induced paw edema; experiment: Phospholipase A2-Induced Paw Edema (PIPE); assay type: in vivo, male Wistar rats; conditions: for ED₅₀: standards of the PIPE assay, PLA2-induced rat paw edema; for PIPE 0.1 M: 0.1 M test compound injected with PLA2 (3 units/paw) in the subplantar region of the rat left hindpaw, paw displacement at two hours
Protocol: Phospholipase A₂-Induced Paw Edema (PIPE)
The ability of compounds to reverse naja naja (snake venom) phospholipase A₂(PLA₂)-induced paw edema in male Wistar rats (100-125 gm) was measured. PLA₂ (3 units/100 »l dH₂O/paw) alone or with 0.1 M of the test compound was injected in the sulplantar region of the rat left hindpaw. Immediatly following injection and at two hours post administration, the paw was immersed in a mercury bath, and paw displacement was measured on a recorder via a transducer. The value was then converted to […]. (Standards: Quinacrine ED₅₀ = 0.1 M; Hydrocortisone ED₅₀= 0.46 M). Giessler, A.J. et al., "Agents and Action", Vol. 10, "Trends in Inflammation Research" (1981), p. 195.

[2] = system: phenyl-para-quinone induced writhing; experiment: Phenyl-para-benzoquinone writhing assay (analgesia); assay type: in vivo; conditions: Mus musculus, mice; for ED50: sc, subcutaneous dose at which 50% of the phenyl-para-quinone induced writhing is inhibited, read-out: ED₅₀
From the text: The compounds of the present invention are also useful as analgesic agents due to this ability to alleviate pain in mammals. […] Exptl. Biol. Med., 95, 729 (1957)].
The analgesic activity of some of the compounds expressed as either the subcutaneous dose at which 50% of the phenyl-para-quinone induced writhing is inhibited in the animals, i.e., the ED₅₀ value, or as the % decrease in writhing at a given dose is presented in Table 2.

[3] = system: arachidonic acid-induced ear edema; experiment: Arachidonic Acid-Induced Mouse Ear Edema (AAEE); assay type: in vivo, female Swiss Webster mice; conditions: 1 mg/ear topical, 30 minutes before arachidonic acid 4 mg/ear; ear plug weight one hour later, relative to control
Protocol: Arachidonic Acid-Induced Mouse Ear Edema (AAEE)
In the arachidonic acid-induced ear edema assay, the test compound is dissolved in 30/70 propylene glycol/ethanol and is applied to both ears of groups of 6 female Swiss Webster mice at a volume of 20 »l so that a total of 1.0 mg of test compound as delivered to each ear over the inner and outer surfaces. The mice were housed together in a cage under standard conditions for 1 week prior to use with food and water ad lib. The same volume (20 »l) of vehicle is applied to each ear of a control group of mice. After 30 minutes, arachidonic acid is applied to the right ear of each mouse of each group in the amount of 4 mg/ear. Vehicle is applied to the left ear of each mouse of each group at a volume of 20 »l/ear. After an additional hour, the mice are sacrificed and a 4mm plug is taken from each ear and weighed. The difference between the right and left ear plugs was determined for each animal. The antiinflammatory activity of the test compound is expressed as the mean percent change in the ear plug weight of the treated animals relative to the mean percent change in weights of control animals' ear. (Standard: Indomethacin -90% at 1 mg/ear). Young, J.M. et al., Invest. Dermatol., 80, (1983), pp. 48-52.

TPA-induced ear edema = experiment: TPA-Induced Ear Edema (TPAEE); assay type: in vivo, female Swiss Webster mice; conditions: for TPAEE 10 »g/ear: 10 »g/ear compound topical with 10 »g TPA, ear plug weight after about 5 hours, mean percent change versus control
Protocol: TPA-Induced Ear Edema (TPAEE)
In the TPA-induced ear edema assay, TPA (12-0-tetradecanoyl-phorbol-13-acetate) is dissolved in 30/70 propylene glycol/ethanol and is applied to the right ear of groups of 6 female Swiss Webster mice at a volume of 20 »l so that a total of 10 »g of TPA is delivered to the inner and outer surfaces of the ear. The mice were housed together in a cage under standard conditions for 1 week prior to use with food and water ad lib. The test compound is dissolved in the vehicle and is applied to the right ear (the inner and outer surfaces) at a volume of 20 »l so that a total of 10 »g of the compound is delivered to the ear. After about 5 hours, the animals are sacrificed and a 4 mm diameter plug is taken from each ear and weighed. The difference between the right and left ear plug weights for each animal was determined. The antiinflammatory activity of the test compound is expressed as the mean percent change in ear plug weight of the treated animals compared to the mean percent change in the plug weight of the control animals. (Standard: Indomethacin: -86% at 1 mg/ear). Young, J.M. et al., J. Invest. Dermatol., 80 (1983), pp. 48-52.

Row | Structure (SMILES) | AAEE % Change @ 1 mg/ear [3] [%] | TPAEE 10 »g/ear (TPA-induced ear edema) | PIPE 0.1 M [1] | further results
1 | CCN(CC)CCCC(C)Nc1c2ccc(Cl)cc2nc2ccc(OC)cc12 (centres unmarked) [Quinacrine, reference compound] |  |  |  | ED₅₀ [1]: 0.1 M
2 | CCN(O)C(=O)C(C)c1ccc2c(c1)C(=O)c1ccccc1CO2 (centres unmarked) [2-(6,11-Dihydro-11-oxodibenz[b,e,]oxepin-2-yl]-N-ethyl-N-hydroxypropanamide] |  |  |  | ED50 [2]: 3.6 mg/kg
3 | COc1ccc2c(c1)c(CC(=O)O)c(C)n2C(=O)c1ccc(Cl)cc1 [Indomethacin, reference compound] | -90 |  |  | TPAEE percent change in ear plug weight (TPA-induced ear edema; standard, at 1 mg/ear): -86%
4 | C[C@]12CCC(=O)C=C1CC[C@@H]1[C@@H]2[C@@H](O)C[C@@]2(C)[C@H]1CC[C@]2(O)C(=O)CO [Hydrocortisone, reference compound] |  |  |  | ED₅₀ [1]: 0.46 M
5 | CN(O)C(=O)CCc1ccc2c(c1)C(=O)c1ccccc1CO2 [3-(6,11-Dihydro-11-oxodibenz[b,e]oxepin-2-yl)-N-hydroxy-N-methylpropanamide] | -63 | -71 | -46 | 
6 | O=C1c2ccccc2COc2ccc(CC(=O)N(O)C3CCCCC3)cc21 [N-Cyclohexyl-2-(6,11-dihydro-11-oxodibenz[b,e]oxepin-2-yl)-N-hydroxyacetamide] | -29 | -52 | -85 | inhibition at 20 mg/kg [2]: 68%
7 | CCC(=O)O[C@](Cc1ccccc1)(c1ccccc1)[C@H](C)CN(C)C [Propoxyphene, reference compound] |  |  |  | ED50 [2]: 3.9 mg/kg
8 | CN(O)CCc1ccc2c(c1)C(=O)c1ccccc1CO2 [2-(6,11-Dihydro-11-oxodibenz[b,e]oxepin-2-yl)-N-hydroxy-N-methyl-ethylamine] | -46 | -50 | -70 | 
9 | O=C1c2ccccc2COc2ccc(CCC(=O)N(O)C3CCCCC3)cc21 [3-(6,11-Dihydro-11-oxodibenz[b,e]oxepin-2-yl)-N-cyclohexyl-N-hydroxypropanamide] |  |  |  | inhibition at 20 mg/kg [2]: 76%
